Here are results for twelve compounds from US7087595B2, “Antihistaminic spiro compounds” (Janssen Pharmaceutica, N.V., priority 1998, dated 2006).

Counter-ions that a name gives are not always drawn. Like-named read-outs stand apart in the source and are kept apart here.

In this assay the test system is Compound 48/80 induced Lethality. Nature of the assay: Protection of Rats from Compound 48/80 induced Lethality. In kind it is in vivo. The settings on record: protection from Compound 48/80 induced lethality.
The mark [1] stands for this setting: Rattus norvegicus, read-out: ED50.

One may read the ED50 as the dose that gives a 50% effect, or the effect in half of the subjects. Take `CN1CCC2(CC1)c1ccccc1CCn1ccnc12.O=S(=O)(O)NC1CCCCC1.O=S(=O)(O)NC1CCCCC1` [Compound 1, 6,11-dihydro-1′-methylspiro[5H-imidazo[2,1-b][3]benzazepine-11,4′-piperidine]cyclohexylsulfamate(1:2)]: the “ED50” value is listed as 2.5 mg/kg.

As for `C1=Cn2ccnc2C2(CCNCC2)c2ccsc21` [Compound 56a, spiro[10H-imidazo[1,2-a]thieno[3,2-d]azepine-10,4′-piperidine]], the ED50 under setting [1] is 2.5 mg/kg. For the compound `CCOC(=O)C(CN1CCC2(CC1)c1ccccc1CCn1c(C(N)=O)cnc12)c1ccccc1` (stereo not drawn) [Compound 64, ethyl 3-(aminocarbonyl)-6,11-dihydro-α-phenylspiro[5H-imidazo-[2,1-b][3]benzazepine-11,4′-piperidine]-1′-propanoate monohydrochloride], the ED50 under setting [1] worked out at 0.31 mg/kg. As to `Clc1cnc2n1CCc1ccccc1C21CCNCC1.O=C(O)/C=C/C(=O)O` [Compound 20, 3-chloro-6,11-dihydrospiro[5H-imidazo[2,1-b][3]benzazepine-11,4′-piperidine] (E)-2-butenedioate (1:1)], the ED50 under setting [1] was determined as 0.31 mg/kg. On to `Cl.Cl.NC(=O)c1nc2n(c1C(N)=O)CCc1ccccc1C21CCNCC1.O` [Compound 53, 6,11-dihydrospiro[5H-imidazo[2,1-b][3]benzazepine-11,4′-piperidine]-2,3-dicarboxamide dihydrochloride monohydrate], for which, under setting [1], the ED50 came to 0.31 mg/kg. Take “3-(aminocarbonyl)-6,11-dihydrospiro[5H-imidazo[2,1-b][3]-benzazepine-11,4′-piperidine]-1′-carboxylate [Compound 79]”: the median effective dose (ED50) came out at 0.04 mg/kg.

In the case of “5,6-dihydrospiro[11H-imidazo[2,1-b][3]benzazepine-11,4′-piperidine]-3-methanol (E)-2-butenedioic acid salt (2:1) [Compound 18a]”, the “ED50” value came out at 0.08 mg/kg. `COCc1cnc2n1CCc1ccccc1C21CCNCC1.O=C(O)/C=C/C(=O)O` [Compound 58, 6,11-dihydro-3-(methoxymethyl)spiro[5H-imidazo[2,1-b][3]benzazepine-11,4′-piperidine]. (E)-2-butenedioate (1:1)]: the “ED50” value stood at 2.5 mg/kg. On to `CCCCN1CCC2(CC1)c1ccccc1CCn1ccnc12.CCCCN1CCC2(CC1)c1ccccc1CCn1ccnc12.Cl.Cl.Cl.Cl.O` [Compound 3, 1′-butyl-5,6-dihydrospiro[imidazo[2,1-b][3]-benzazepine-11-[11H],4′-piperidine]dihydrochloride.hemihydrate], for which the “ED50” value is recorded as 2.5 mg/kg.

As for `CN1CCC2(CC1)c1ccccc1CCn1c(C(N)=O)cnc12.O` [Compound 80, 6,11-dihydro-1′-methylspiro[5H-imidazo[2,1-b][3]benzazepine-11,4′-piperidine]-3-carboxamide monohydrate], the ED50 under setting [1] worked out at 0.63 mg/kg. Take `NC(=O)c1cnc2n1CCc1ccccc1C21CCN(CCO)CC1` [Compound 62, 6,11-dihydro-1′-(2-hydroxyetehyl)spiro[5H-imidazo[2,1-b][3]-benzazepine-11,4′-piperidine]-3-carboxamide]: the “ED50” value was found to be 0.63 mg/kg. With `Cl.Cl.NC(=O)c1cnc2n1CCc1ccccc1C21CCNCC1` [Compound 17, 5,6-dihydrospiro[11H-imidazo[2,1-b][3]-benzazepine-11,4′-piperidine]-3-carboxamide dihydrochloride], under setting [1], the ED50 amounted to 0.04 mg/kg.
